Measurements from BigSolDB 2.1.

CN1CC(O)c2cc(N=NC(N)=O)c(O)cc21 (centres undefined)
solubility (mole fraction)
Conditions	278.15 K	283.15 K	288.15 K	293.15 K	298.15 K	303.15 K	308.15 K	313.15 K	318.15 K
in DMF	0.00095	0.00115	0.00129	0.0015	0.00177	0.00202	0.00231	0.00277	0.00335
in DMSO	0.00619	0.0073	0.00863	0.01	0.0113	0.0129	0.0146	0.0159	0.0174
in ethanol	1.8e-05	2.15e-05	2.42e-05	3.02e-05	3.67e-05	4.29e-05	5.24e-05	6.97e-05	8.54e-05
in methanol	3.56e-05	4.38e-05	5.31e-05	6.89e-05	8.35e-05	9.97e-05	0.00012	0.000147	0.000173
in n-propanol	1.75e-05	2.05e-05	2.41e-05	2.77e-05	3.18e-05	3.66e-05	4.5e-05	5.92e-05	7.31e-05
in water	2.81e-05	3.26e-05	3.78e-05	4.4e-05	5.15e-05	6.03e-05	6.87e-05	7.98e-05	9.69e-05
